Experimental data: PMC12363342, “Investigating the N-terminal linker histone H1 subtypes as substrates for JmjC lysine demethylases” (RSC Chemical Biology, 2025)
Square brackets hold non-standard residues; d marks the D form. Ends that are not written are not given here. Lys(Me2) = CN(C)CCCC[C@H](N)C(=O)O

What was measured:
KDM3A = assay: LC-MS demethylation activity assay, KDM3A; format: biochemical, human; settings: 2 μM KDM, 10 μM H1/H3 peptide, 10 μM FAS, 100 μM LAA, 20 μM 2OG, 50 mM HEPES pH 7.5, 2 h, room temperature; for KDM3A demethylation activity, M: M (mono-) initial methylation state; for KDM3A demethylation activity, D: D (di-) initial methylation state
Description: (§1) The substrate specificity of JmjC KDMs for H1 was examined using liquid chromatography coupled to mass spectrometry (LC-MS) assays. The H1 peptides (10 μM) were incubated with the recombinant KDM (2 μM) in HEPES buffer at pH 7.5 at room temperature for 2 h, in the presence of ferrous(II) ammonium sulfate (FAS, 10 μM), sodium ascorbate (LAA, 100 μM) and 2OG (20 μM), and then quenched with formic acid. N^ε-Methylated H3K9 and H3K36 peptides were used as positive controls (Fig. 3–5 and Fig. S2–S6).[26]
(§2) The catalytic domains of the JmjC KDMs used were recombinantly produced as reported in either Escherichia coli (KDM4AM1-L359,[38] KDM4DM1-L359,[39] KDM4EM1-R336,[30] KDM6BD1141–E1590[40] and KDM3CL2157-L2500) or Sf9 cells (KDM3AT515–S1317, KDM3B882–1761, and KDM5DM1-D775) as N-terminally His6-tagged proteins. […] To produce proteins, DNA sequences encoding for KDM3A, KDM3B and KDM5D were inserted into the pFB-LIC vector, containing a TEV-protease cleavable N-terminal 6x-histidine tag via ligation independent cloning (LIC). The resultant plasmids were transformed into baculovirus and Sf9 cells ([…]) which were infected with the virus stock. The cells were grown at 27 °C and 90 rpm for 70 h. Cells were then harvested and suspended in 100 mL of lysis buffer (50 mM HEPES-NaOH, pH 7.4, 500 mM NaCl, 20 mM imidazole, 0.5 mM Tris (2-carboxyethyl)phosphine (TCEP), 5% (v/v) glycerol). […] The supernatant was loaded onto a Ni-NTA gravity column, washed with 10 column volume of lysis buffer and eluted using the elution buffer (50 mM HEPES-NaOH, pH 7.4, 500 mM NaCl, 300 mM imidazole, 0.5 mM TCEP, 5% (v/v) glycerol). The eluted protein was further purified using S200 gel filtration column chromatography (50 mM HEPES-NaOH, pH 7.4, 150 mM NaCl, 0.5 mM TCEP and 5% glycerol). Protein purity was analysed by SDS-PAGE and further confirmed by mass spectrometry. Selected fractions were pooled, concentrated and stored at −80 °C.
(§3) All reagents were purchased from Sigma Aldrich and were of the highest grade available. Ferrous(II) ammonium sulfate (FAS) solutions were prepared freshly by dissolving FAS to 400 mM in 20 mM HCl with subsequent dilution to 1 mM using deionized water. Fresh 2OG (10 mM) and LAA (50 mM) solutions were prepared by dissolving the solids in deionised water. All enzyme reactions were performed in 384-well plates (Greiner Bio-One) with a final reaction volume of 50 μL. Substrate mixtures contained 50 mM HEPES pH 7.5, LAA (100 μM), FAS (10 μM), 2OG (20 μM) and an H1 isoform peptide (10 μM). Reactions were initiated by the addition of enzyme to a final concentration of 2.0 μM. After 2 h, the reactions were stopped by the addition of 5 μL of 10% (v/v) LC-MS grade formic acid (Fisher Scientific) to a final concentration of 1% (v/v). Product analyses were performed by liquid chromatography-mass spectrometry (LC-MS) using an Agilent 1290 infinity II LC system equipped with an Agilent 1290 multisampler and an Agilent 1290 high speed pump and connected to an Agilent 6550 accurate mass iFunnel quadrupole time of flight (Q-TOF) mass spectrometer. 1 μL of the reaction mixture was injected onto a 1.8 μm × 2.1 × 50 mm ZORBAX RRHD Eclipse Plus C18 column (Agilent). Solvent A consisted of HPLC grade water containing 0.1% (v/v) formic acid and solvent B consisted of MeCN containing 0.1% (v/v) formic acid. Peptides were separated using a stepwise gradient (0 min – 95% solvent A, 1.0 min – 80% solvent A, 3.0 min – 45% solvent A, 4.0 min – 45% solvent A, 5.0 min – 0% solvent A, 6.0 min – 0% solvent A, 7.0 min – 95% solvent A). This was followed by a 3 min post-run with 95% solvent A to re-equilibrate the column. All flow rates were 0.2 mL min^−1. A blank injection of HPLC grade water was carried out between each sample injection.

KDM3B = assay: LC-MS demethylation activity assay, KDM3B; format: biochemical, human; settings: 2 μM KDM, 10 μM H1/H3 peptide, 10 μM FAS, 100 μM LAA, 20 μM 2OG, 50 mM HEPES pH 7.5, 2 h, room temperature; for KDM3B demethylation activity, M: M (mono-) initial methylation state; for KDM3B demethylation activity, D: D (di-) initial methylation state
Description: as §1, §2, §3

KDM3C = assay: LC-MS demethylation activity assay, KDM3C; format: biochemical, human; settings: 2 μM KDM, 10 μM H1/H3 peptide, 10 μM FAS, 100 μM LAA, 20 μM 2OG, 50 mM HEPES pH 7.5, 2 h, room temperature; for KDM3C demethylation activity, M: M (mono-) initial methylation state; for KDM3C demethylation activity, D: D (di-) initial methylation state
Description: as §1, §2, §3

KDM4A = assay: LC-MS demethylation activity assay, KDM4A; format: biochemical, human; settings: 2 μM KDM, 10 μM H1/H3 peptide, 10 μM FAS, 100 μM LAA, 20 μM 2OG, 50 mM HEPES pH 7.5, 2 h, room temperature; for KDM4A demethylation activity, M: M (mono-) initial methylation state; for KDM4A demethylation activity, D: D (di-) initial methylation state
Description: as §1, §2, §3

KDM4D = molecular target: T1, KDM4D (Homo sapiens, UniProt Q6B0I6); assay: LC-MS demethylation activity assay, KDM4D; format: biochemical; settings: 10 μM FAS, 100 μM LAA, 20 μM 2OG, room temperature; for KDM4D demethylation activity, M / KDM4D demethylation activity, D: 2 μM KDM, 10 μM H1/H3 peptide, 50 mM HEPES pH 7.5, 2 h; for KDM4D demethylation activity, M: M (mono-) initial methylation state; for substrate conversion (demethylation) by KDM4D: 2 μM KDM4D, 10 μM peptide, HEPES pH 7.5, 2 h; for KDM4D demethylation activity, D: D (di-) initial methylation state
T1 construct: KDM4AM1-L359,[38]; KDM4DM1-L359,[39]; KDM4EM1-R336,[30]; His6 (N); made in house; host or cells: Escherichia coli
T1 sequence (Q6B0I6 1-359): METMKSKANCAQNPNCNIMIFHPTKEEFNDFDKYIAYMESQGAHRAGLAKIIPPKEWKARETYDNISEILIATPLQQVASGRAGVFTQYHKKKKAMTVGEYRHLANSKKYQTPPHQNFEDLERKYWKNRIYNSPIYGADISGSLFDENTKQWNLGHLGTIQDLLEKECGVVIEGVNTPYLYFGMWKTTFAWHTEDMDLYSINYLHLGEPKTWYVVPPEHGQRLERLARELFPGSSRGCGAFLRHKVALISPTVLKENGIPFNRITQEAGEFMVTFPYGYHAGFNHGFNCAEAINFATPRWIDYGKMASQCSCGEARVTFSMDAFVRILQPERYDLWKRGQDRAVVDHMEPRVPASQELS
Description: as §1, §2, §3

KDM5D = assay: LC-MS demethylation activity assay, KDM5D; format: biochemical, human; settings: 2 μM KDM, 10 μM H1/H3 peptide, 10 μM FAS, 100 μM LAA, 20 μM 2OG, 50 mM HEPES pH 7.5, 2 h, room temperature; for KDM5D demethylation activity, M: M (mono-) initial methylation state; for KDM5D demethylation activity, D: D (di-) initial methylation state
Description: as §1, §2, §3

KDM6B = assay: LC-MS demethylation activity assay, KDM6B; format: biochemical, human; settings: 2 μM KDM, 10 μM H1/H3 peptide, 10 μM FAS, 100 μM LAA, 20 μM 2OG, 50 mM HEPES pH 7.5, 2 h, room temperature; for KDM6B demethylation activity, M: M (mono-) initial methylation state; for KDM6B demethylation activity, D: D (di-) initial methylation state
Description: as §1, §2, §3

KDM4E = molecular target: T2, KDM4E (Homo sapiens, UniProt B2RXH2); assay: LC-MS demethylation activity assay, KDM4E; format: biochemical; settings: room temperature; for mono-methylated product formed by KDM4E: 2 μM KDM4E, 10 μM peptide, standard conditions, 2 h; for KDM4E demethylation activity, D: D (di-) initial methylation state
T2 construct: KDM4DM1-L359,[39]; KDM4EM1-R336,[30]; His6 (N); made in house; host or cells: Escherichia coli
T2 sequence (B2RXH2 1-336): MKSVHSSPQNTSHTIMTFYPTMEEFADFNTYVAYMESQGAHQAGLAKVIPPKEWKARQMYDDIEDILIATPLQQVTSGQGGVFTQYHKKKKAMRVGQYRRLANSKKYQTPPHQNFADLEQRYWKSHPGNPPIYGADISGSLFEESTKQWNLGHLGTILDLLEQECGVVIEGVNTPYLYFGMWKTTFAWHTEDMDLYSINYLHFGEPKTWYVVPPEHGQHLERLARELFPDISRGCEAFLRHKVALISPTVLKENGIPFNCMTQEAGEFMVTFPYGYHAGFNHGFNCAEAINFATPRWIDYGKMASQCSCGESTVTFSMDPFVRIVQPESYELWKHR
Description: as §1, §2, §3

[1] = 2 μM KDM, 10 μM H1/H3 peptide, 10 μM FAS, 100 μM LAA, 20 μM 2OG, 50 mM HEPES pH 7.5, 2 h

| Substance | KDM3A demethylation activity, M (KDM3A) | KDM3B demethylation activity, M (KDM3B) | KDM3C demethylation activity, M (KDM3C) | KDM4A demethylation activity, M (KDM4A) | KDM4D demethylation activity, M (KDM4D) | KDM5D demethylation activity, M (KDM5D) | KDM6B demethylation activity, M (KDM6B) | KDM3A demethylation activity, D (KDM3A) | KDM3B demethylation activity, D (KDM3B) | KDM3C demethylation activity, D (KDM3C) | KDM4A demethylation activity, D (KDM4A) | substrate conversion (demethylation) by KDM4D (KDM4D) | KDM4D demethylation activity, D (KDM4D) | mono-methylated product formed by KDM4E (KDM4E) [%] | KDM4E demethylation activity, D (KDM4E; [1]) | KDM5D demethylation activity, D (KDM5D) | KDM6B demethylation activity, D (KDM6B) | KDM4E demethylation activity, M (KDM4E; 2 μM KDM, 10 μM H1/H3 peptide, 10 μM FAS, 100 μM LAA, 20 μM 2OG, 50 mM HEPES pH 7.5, 2 h, M (mono-) initial methylation state) |
| --- | --- | --- | --- | --- | --- | --- | --- | --- | --- | --- | --- | --- | --- | --- | --- | --- | --- | --- |
| KKKAAKKmeAGGTPRKA [Peptide H1.2K26me, 15-mer linker histone H1.2 residues 20-34 peptide, mono-methylated K26] | ● [red] | ● [red] | ● [red] | ● [red] | ● [red] | ● [red] | ● [red] | – | – | – | – | – | – | – | – | – | – | – |
| KKKAAK[Lys(Me2)]AGGTPRKA [Peptide H1.2K26me2, 15-mer linker histone H1.2 residues 20-34 peptide, di-methylated K26] | – | – | – | – | – | – | – | ● [red] | ● [red] | ● [red] | ● [red] | 20–35% | ● [yellow] (yellow dots indicate moderate demethylation (<50% conversion)) | ~64 | ● [green] (green dots indicate good demethylation (>50% conversion)) | ● [red] | ● [red] | – |
| KKKAAKmeKAGGTPRKA [Peptide H1.2K25me, 15-mer linker histone H1.2 residues 20-34 peptide, mono-methylated K25] | ● [red] | ● [red] | ● [red] | ● [red] | ● [red] | ● [red] | ● [red] | – | – | – | – | – | – | – | – | – | – | ● [red] |
| KKKAA[Lys(Me2)]KAGGTPRKA [Peptide H1.2K25me2, 15-mer linker histone H1.2 residues 20-34 peptide, di-methylated K25] | – | – | – | – | – | – | – | ● [red] | ● [red] | ● [red] | ● [black] (black dots indicate low-level demethylation (<10% conversion)) | 20–35% | ● [red] | ~64 | ● [red] | ● [red] | ● [red] | – |
| KKKAKmeKAGATAGKRK [Peptide H1.3K24me, 15-mer linker histone H1.3 residues 20-34 peptide, mono-methylated K24] | ● [red] | ● [red] | ● [red] | ● [red] | ● [red] | ● [red] | ● [red] | – | – | – | – | – | – | – | – | – | – | – |
| KKKARKmeSAGAAKRKA [Peptide H1.4K25me, 15-mer linker histone H1.4 residues 20-34 peptide, mono-methylated K25] | ● [red] | ● [red] | ● [red] | ● [red] | ● [black] (black dots indicate low-level demethylation (<10% conversion)) | ● [red] | ● [red] | – | – | – | – | – | – | – | – | – | – | – |
